Where a SMILES comes first, the peptide text is derived from it. Where no end group is shown, it is not given here.
What was measured:
Cr. neoformans cells [1] = assay: Propidium iodide staining, fluorescence microscopy; assay type: cell-based, Cryptococcus neoformans; conditions: peptide 300 µM, 30 °C, 1 h, 0.03 mM PI 15 min
Procedure: (§1) Their ability to disturb the integrity of pathogen membranes was assayed by staining with propidium iodide of C. albicans and Cr. neoformans cells preliminarily incubated with the peptides. The results were visualized by fluorescent microscopy and quantified by flow cytometry (Figure 5, Figure 6 and Figure 7).
(§2) Staining of yeast cells with propidium iodide in the presence of the γ-core peptides was carried out according to the protocol described earlier. C. albicans or Cr. neoformans cells (24 h culture in YPD-P at a cell concentration of 2 × 10^8/mL) were incubated with the peptide at a concentration of 300 µM at 30 °C for 1 h. After incubation, 1 mL of the cells was stained with 0.03 mM propidium iodide (Sigma, St. Louis, MO, USA). The staining proceeded for 15 min at 30 °C. The fluorescence was recorded on an AXIO Imager A1 fluorescence microscope (ZEISS, Göttingen, Germany) using a Zeiss filter set 56 HE.

Cr. neoformans cells [2] = assay: Propidium iodide penetration, flow cytometry; assay type: cell-based, Cryptococcus neoformans; conditions: 28 °C, 2 h; for Penetration of propidium iodide (PI) into Cr. neoformans cells: peptide 300 µM in water, PI 2 µg/mL, FL2 (488/585 nm); for Number of Cr. neoformans cells in flow cytometry: peptide 300 µM
Procedure: as §1
For flow cytometry experiments with Cr. neoformans, the yeasts were grown on the YPD medium at 28 °C for 48 h. After that, the cells were centrifuged at 12,000× g for 3 min, washed with MiliQ water and incubated with the peptides dissolved in water at a concentration of 300 µM at 28 °C for 2 h. The cells were stained with propidium iodide by direct addition of the dye to the incubation medium (final concentration of 2 µg/mL) and measured on a NovoCyte Flow cytometer (Agilent, Santa Clara, CA, USA) using the channel FL2 (488 nm excitation and 585 nm emission). The sample without peptides was used as a control.

C. albicans cells = assay: Propidium iodide staining, fluorescence microscopy; assay type: cell-based, Candida albicans; conditions: peptide 300 µM, 30 °C, 1 h, 0.03 mM PI 15 min
Procedure: as §1, §2

[3] = system: Candida albicans VKM Y-2994; assay type: cell-based; conditions: for Inhibition of C. albicans at the highest tested concentration: inhibition curves (Figure 4), highest tested concentration (300 µM)
Procedure: (§3) The antimicrobial activity of synthetic peptides was tested against a panel of human and plant pathogens. Among them were the yeasts Candida albicans VKM Y-2994 and Cryptococcus neoformans VKM Y-2755, the plant pathogenic bacteria Clavibacter michiganensis subsp. michiganensis VKM Ac-1403, Pseudomonas savastanoi pv. savastanoi VKM B-1546 and Pectobacterium carotovorum subsp. carotovorum VKM B-1247, and four Fusarium species (F. oxysporum VKM F-137, F. culmorum VKM F-2303, F. solani VKM F-142 and F. verticillioides VKM F-670), which cause diseases in plants and humans. The antimicrobial activity was first measured at the peptide concentration of 300 µM (Figure 3).
(§4) The antimicrobial activity of synthetic peptides was tested against the yeasts Candida albicans VKM Y-2994 and Cryptococcus neoformans VKM Y-2755, the bacteria Pseudomonas savastanoi pv. savastanoi VKM B-1546, Pectobacterium carotovorum subsp. carotovorum VKM B-1247 and Clavibacter michiganensis subsp. michiganensis VKM Ac-1403, and four Fusarium species: F. culmorum VKM F-2303, F. oxysporum VKM F-137, F. solani VKM F-142 and F. verticillioides VKM F-670. All cultures were obtained from the All-Russian Collection of Microorganisms (VKM). The details of the production and storage of cultures of microorganisms used in this study are described at the VKM Home page. Antimicrobial assays were accomplished according to the procedure described earlier. In short, yeasts were grown on the YPD-P medium and the bacteria P. carotovorum and Cl. michiganensis were cultured on a modified YPD-P medium. The Fusarium fungi were grown on potato dextrose agar at 25 °C for 7–8 days, and spores were washed off from the surface of the mycelia with sterile, distilled water. The antimicrobial activity of the peptides was measured in immunoassay microtiter plates according to the protocol of Broekaert et al.. With yeasts and bacteria, each well contained 10 µL of the tested peptide solution (final concentrations of 10–300 µM) in water, 80 µL of the medium and 10 µL of the microbial suspension. The plates were incubated at 30 °C for 24 h, and the absorbance of the suspension was measured on an Efos 9305 spectrophotometer (Sapphire, Moscow, Russia) at 594 nm. For Fusarium species, the wells of a microtiter plate were filled with 90 µL of the fungal spore suspension in half-strength potato dextrose broth at a concentration of 2000–3000 spores in 100 µL and 10 µL of aqueous solutions of peptides at final concentrations of 10–300 µM. After 38 h of incubation, the absorbance was recorded at 595 nm on a FilterMax F5 Multi-Mode Microplate Reader (Molecular Devices, San Jose, CA, USA). Antimicrobial activity is expressed in IC50 values, which show the concentration necessary for 50% inhibition of the pathogen growth; this was determined from a graph showing the activity dependence on peptide concentration.
(§5) For each pathogen, experiments on the peptide antimicrobial activity evaluation were carried out in triplicate per treatment. Mean values, standard deviations (SD), and the significance of differences (p ≤ 0.05) of the means between treatments and controls (t-test for independent variables) were determined using STATISTICA v. 6.1 software (StatSoft Inc., Tulsa, OK, USA).

[4] = system: Cryptococcus neoformans VKM Y-2755; assay type: cell-based
Procedure: as §3, §4, §5

[5] = system: Pectobacterium carotovorum subsp. carotovorum VKM B-1247; conditions: 30 °C, 24 h, absorbance 594 nm
Procedure: All cultures were obtained from the All-Russian Collection of Microorganisms (VKM).
Mean values, standard deviations (SD), and the significance of differences (p ≤ 0.05) of the means between treatments and controls (t-test for independent variables) were determined using […] v. 6.1 software (StatSoft Inc., Tulsa, OK, USA).

[6] = system: F. verticillioides VKM F-670; assay type: cell-based, Fusarium verticillioides
Procedure: as §3, §4, §5

[7] = system: Pseudomonas savastanoi pv. savastanoi VKM B-1546; assay type: cell-based; conditions: 300 µM peptide; 30 °C, 24 h, absorbance 594 nm; vs control without peptide; triplicate, mean
Procedure: as §3, §4, §5

[8] = inhibition curves (Figure 4), highest tested concentration (300 µM)

AGHGKRYTGRG [HvDEFL4-1_67-77]
Membrane permeabilization of Cr. neoformans cells (PI staining) (Cr. neoformans cells [1]): induced membrane permeabilization | Penetration of propidium iodide (PI) into Cr. neoformans cells (Cr. neoformans cells [2]): 37.84% | Number of Cr. neoformans cells in flow cytometry (Cr. neoformans cells [2]): reduction in the number of Cr. neoformans cells | Membrane permeabilization of C. albicans cells (PI staining) (C. albicans cells): induced membrane permeabilization

CC(C)C[C@H](NC(=O)[C@H](CCCNC(=N)N)NC(=O)[C@H](Cc1c[nH]cn1)NC(=O)[C@H](CO)NC(=O)[C@H](CC(N)=O)NC(=O)[C@H](CS)NC(=O)[C@H](CCC(=O)O)NC(=O)CN)C(=O)N[C@@H](CCC(=O)O)C(=O)N[C@@H](CCCNC(=N)N)C(=O)N[C@@H](CCCCN)C(=O)N[C@@H](CS)C(=O)N[C@@H](Cc1ccccc1)C(=O)N[C@@H](CS)C(=O)N[C@@H](CCCCN)C(=O)N[C@@H](CCCNC(=N)N)C(=O)N[C@H](C(=O)N[C@@H](CS)C(=O)O)[C@@H](C)O [DEFL1-40_65-82] (H-GECNSHRLERKCFCKRTC-OH)
Pathogen inhibition, % (C. albicans) ([3]; 300 µM peptide, YPD-P medium, 30 °C, 24 h, absorbance 594 nm, vs control without peptide, triplicate, mean): failed to suppress

C[C@@H](O)[C@H](NC(=O)[C@H](CS)NC(=O)[C@H](CCCNC(=N)N)NC(=O)[C@H](CCCNC(=N)N)NC(=O)[C@H](Cc1ccccc1)NC(=O)[C@H](CCCCN)NC(=O)[C@H](CS)NC(=O)[C@H](Cc1ccc(O)cc1)NC(=O)CN)C(=O)N[C@@H](CS)C(=O)N[C@@H](CCC(N)=O)C(=O)N[C@@H](CCCNC(=N)N)C(=O)N[C@@H](CCC(=O)O)C(=O)N[C@@H](CS)C(=O)O [DEFL1-32_55-68] (H-GYCKFRRCTCQREC-OH; N-terminus and C-terminus assumed)
Membrane permeabilization of Cr. neoformans cells (PI staining) (Cr. neoformans cells [1]): induced membrane permeabilization | Membrane permeabilization of C. albicans cells (PI staining) (C. albicans cells): induced membrane permeabilization | Inhibition of C. albicans at the highest tested concentration [3]: 92%

CSCC[C@H](NC(=O)[C@H](CS)NC(=O)[C@H](C)NC(=O)CNC(=O)[C@H](CCCNC(=N)N)NC(=O)[C@H](CCCCN)NC(=O)[C@H](C)NC(=O)[C@H](CCCNC(=N)N)NC(=O)[C@H](CO)NC(=O)[C@H](CCCNC(=N)N)NC(=O)[C@H](C)NC(=O)[C@H](CS)NC(=O)[C@H](CCCNC(=N)N)NC(=O)[C@@H](NC(=O)[C@H](C)NC(=O)[C@H](CS)NC(=O)[C@H](CCCCN)NC(=O)CN)C(C)C)C(=O)N[C@@H](CCCCN)C(=O)O [TkSN1_39-57] (H-GKCAVRCARSRAKRGACMK-OH; N-terminus and C-terminus assumed)
Membrane permeabilization of Cr. neoformans cells (PI staining) (Cr. neoformans cells [1]): induced membrane permeabilization | Membrane permeabilization of C. albicans cells (PI staining) (C. albicans cells): induced membrane permeabilization | Inhibition of C. albicans at the highest tested concentration [3]: complete inhibition

PARGRPYTGRA [DEFL4-37_91-101]
Activity against Cr. neoformans relative to DEFL4-37_90-102 ([4]; 300 µM (Figure 3), times less active): 10 times

C[C@H](NC(=O)[C@@H](N)CS)C(=O)NCC(=O)N[C@@H](CCCNC(=N)N)C(=O)NCC(=O)N[C@@H](CCC(N)=O)C(=O)N1CCC[C@H]1C(=O)N[C@@H](Cc1ccc(O)cc1)C(=O)N[C@H](C(=O)NCC(=O)N[C@@H](CO)C(=O)NCC(=O)N[C@@H](CS)C(=O)O)[C@@H](C)O [DEFL4-8_82-94] (H-CAGRGQPYTGSGC-OH; N-terminus and C-terminus assumed)
Pathogen inhibition, % (P. carotovorum) ([5]; 300 µM peptide, modified YPD-P medium, vs control without peptide, triplicate, mean): 42% | IC50 ([5]; read-out: IC50, μM P. carotovorum, peptide 10–300 µM, from activity vs concentration graph, mean ± SD): > 100 µM | Maximum inhibition of F. verticillioides at the highest tested concentration [6, 8]: 26% | IC50 ([6]; peptide 10–300 µM, 38 h, absorbance 595 nm, from activity vs concentration graph, mean ± SD): > 100 µM

CC(C)[C@H](NC(=O)[C@H](CS)NC(=O)[C@H](CCCNC(=N)N)NC(=O)CNC(=O)CNC(=O)[C@H](CS)NC(=O)[C@H](CS)NC(=O)[C@@H]1CCCN1C(=O)[C@H](Cc1ccccc1)NC(=O)[C@@H](NC(=O)[C@@H](NC(=O)[C@H](CCCNC(=N)N)NC(=O)[C@H](CS)NC(=O)[C@@H](N)CCCCN)[C@@H](C)O)[C@@H](C)O)C(=O)O [Tk-AMP-K2_10-23] (H-KCRTTFPCCGGRCV-OH; N-terminus and C-terminus assumed)
Membrane permeabilization of Cr. neoformans cells (PI staining) (Cr. neoformans cells [1]): induced membrane permeabilization | Penetration of propidium iodide (PI) into Cr. neoformans cells (Cr. neoformans cells [2]): 66.86% | Number of Cr. neoformans cells in flow cytometry (Cr. neoformans cells [2]): reduction in the number of Cr. neoformans cells | Membrane permeabilization of C. albicans cells (PI staining) (C. albicans cells): induced membrane permeabilization | Inhibition of Cr. neoformans at the highest tested concentration [4, 8]: complete inhibition

CC[C@H](C)[C@H](NC(=O)[C@H](CCCCN)NC(=O)[C@H](CS)NC(=O)[C@H](Cc1ccc(O)cc1)NC(=O)CN)C(=O)N[C@@H](CO)C(=O)N[C@@H](CCCNC(=N)N)C(=O)N[C@@H](CS)C(=O)N[C@H](C(=O)N[C@@H](CS)C(=O)N[C@@H](CCC(N)=O)C(=O)N[C@@H](CCCNC(=N)N)C(=O)N[C@@H](CCC(=O)O)C(=O)N[C@@H](CS)C(=O)O)[C@@H](C)O [DEFL1-11_55-68] (H-GYCKISRCTCQREC-OH; N-terminus and C-terminus assumed)
Pathogen inhibition, % (Ps. savastanoi) [7]: failed to suppress

C[C@@H](O)[C@H](NC(=O)[C@H](CS)NC(=O)[C@H](Cc1ccccc1)NC(=O)[C@H](CS)NC(=O)[C@H](CCCNC(=N)N)NC(=O)[C@H](CCCNC(=N)N)NC(=O)[C@H](CCCNC(=N)N)NC(=O)[C@H](Cc1ccccc1)NC(=O)CNC(=O)[C@H](CCCNC(=N)N)NC(=O)[C@H](CS)NC(=O)[C@H](CCCCN)NC(=O)CN)C(=O)N[C@H](C(=O)N[C@@H](Cc1c[nH]cn1)C(=O)N[C@@H](CS)C(=O)N[C@@H](Cc1c[nH]cn1)C(=O)N[C@@H](Cc1c[nH]cn1)C(=O)O)[C@@H](C)O [DEFL1-16_65-82] (H-GKCRGFRRRCFCTTHCHH-OH; N-terminus and C-terminus assumed)
Membrane permeabilization of Cr. neoformans cells (PI staining) (Cr. neoformans cells [1]): induced membrane permeabilization | Membrane permeabilization of C. albicans cells (PI staining) (C. albicans cells): induced membrane permeabilization

Source: article PMC9368981, “The γ-Core Motif Peptides of AMPs from Grasses Display Inhibitory Activity against Human and Plant Pathogens” (International Journal of Molecular Sciences, 2022)
